Laboratory results from paper PMC3858179 (Journal of medicinal chemistry, 2008).
pEC50, pIC50: −log10 of the molar value. Read-outs that look alike come from different tables or passages of the source.

Experiments:
E. coli TS = E. coli TS (Escherichia coli, UniProt P0A884); experiment: Inhibition of isolated E. coli TS; format: biochemical; settings: for % inhibition TS E. coli (number in parenthesis): at the concentration given
T. gondii DHFR [1] = molecular target: T1, T. gondii DHFR (Toxoplasma gondii, UniProt Q07422); format: biochemical; settings: 20 compounds jointly assayed, by both protocols (Table 1 and Table 2 conditions)
T1 sequence (Q07422 1-610): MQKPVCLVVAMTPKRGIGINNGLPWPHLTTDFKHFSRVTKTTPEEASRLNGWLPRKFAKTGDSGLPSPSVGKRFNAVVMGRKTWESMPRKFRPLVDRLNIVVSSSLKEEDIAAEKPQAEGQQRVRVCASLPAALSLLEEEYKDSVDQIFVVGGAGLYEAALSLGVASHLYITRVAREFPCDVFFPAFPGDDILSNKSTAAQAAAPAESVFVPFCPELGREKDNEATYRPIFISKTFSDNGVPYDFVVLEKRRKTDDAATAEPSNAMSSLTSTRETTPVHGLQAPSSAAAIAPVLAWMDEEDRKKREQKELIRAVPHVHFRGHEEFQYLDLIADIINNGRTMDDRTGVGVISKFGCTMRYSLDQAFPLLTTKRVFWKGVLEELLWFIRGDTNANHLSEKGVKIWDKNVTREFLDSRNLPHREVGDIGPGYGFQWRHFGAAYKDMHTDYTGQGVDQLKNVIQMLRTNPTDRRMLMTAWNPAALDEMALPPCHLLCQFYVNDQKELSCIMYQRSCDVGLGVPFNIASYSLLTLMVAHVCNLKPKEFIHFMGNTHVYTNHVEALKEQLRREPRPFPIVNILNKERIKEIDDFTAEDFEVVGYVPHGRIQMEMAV

[2] = test system: human CCRF-CEM leukemia cells; settings: read-out: EC50 growth of human CCRF-CEM leukemia cells in culture; cited from earlier work
HCT 15 = experiment: NCI tumor cell growth inhibition, HCT 15; format: cell-based; settings: Homo sapiens, HCT-15, read-out: GI50 HCT 15
SW-620 = experiment: NCI tumor cell growth inhibition, SW-620; format: cell-based; settings: Homo sapiens, SW-620, read-out: GI50 SW-620
human TS = human TS (Homo sapiens, UniProt P04818); experiment: Inhibition of isolated human TS; format: biochemical
human TS, sequence (P04818 whole entry): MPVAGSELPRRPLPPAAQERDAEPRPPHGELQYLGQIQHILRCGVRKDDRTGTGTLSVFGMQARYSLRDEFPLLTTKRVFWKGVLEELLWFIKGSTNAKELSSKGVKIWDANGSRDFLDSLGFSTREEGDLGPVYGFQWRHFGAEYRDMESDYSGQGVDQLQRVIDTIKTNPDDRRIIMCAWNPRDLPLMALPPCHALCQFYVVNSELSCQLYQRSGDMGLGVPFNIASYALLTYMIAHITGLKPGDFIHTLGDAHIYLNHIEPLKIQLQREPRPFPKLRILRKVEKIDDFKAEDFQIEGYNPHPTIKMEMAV

T. gondii DHFR [3] = molecular target: T1, T. gondii DHFR; format: biochemical
human DHFR = molecular target: T2, human DHFR (Homo sapiens, UniProt P00374); experiment: Inhibition of isolated human DHFR; format: biochemical
T2 sequence (P00374 1-187): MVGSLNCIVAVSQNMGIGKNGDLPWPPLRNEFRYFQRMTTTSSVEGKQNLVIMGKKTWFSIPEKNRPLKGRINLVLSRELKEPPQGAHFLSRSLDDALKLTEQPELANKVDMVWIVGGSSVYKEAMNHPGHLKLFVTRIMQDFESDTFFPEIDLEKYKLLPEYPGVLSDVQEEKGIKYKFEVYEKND

E. coli DHFR = E. coli DHFR (Escherichia coli, UniProt P0ABQ4); experiment: Inhibition of isolated E. coli DHFR; format: biochemical
E. coli DHFR, sequence (P0ABQ4 whole entry): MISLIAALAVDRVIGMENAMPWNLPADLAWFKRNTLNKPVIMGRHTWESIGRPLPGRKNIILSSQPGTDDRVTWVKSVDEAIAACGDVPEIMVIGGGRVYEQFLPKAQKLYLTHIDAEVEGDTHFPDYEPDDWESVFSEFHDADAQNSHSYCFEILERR

T. gondii TS = T. gondii TS (Toxoplasma gondii, UniProt Q07422); format: biochemical
60 tumor cell lines = experiment: NCI in vitro preclinical antitumor screening, 60 tumor cell lines; format: cell-based

E. coli TS, sequence (P0A884 whole entry): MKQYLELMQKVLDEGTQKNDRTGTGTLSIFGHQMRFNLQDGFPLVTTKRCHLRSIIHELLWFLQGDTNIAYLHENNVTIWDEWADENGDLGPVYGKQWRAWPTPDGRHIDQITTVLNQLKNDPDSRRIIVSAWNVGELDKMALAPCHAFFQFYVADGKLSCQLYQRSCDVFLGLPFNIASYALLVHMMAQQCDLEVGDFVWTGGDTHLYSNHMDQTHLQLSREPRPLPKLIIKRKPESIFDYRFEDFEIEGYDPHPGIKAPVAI

Row | Compound | pIC50 (E. coli TS) | % inhibition TS E. coli (number in parenthesis) (E. coli TS) [%] | other results
1 | CC(C)c1c(Sc2ccc3ccccc3c2)[nH]c2nc(N)nc(N)c12 [Compound 26, 2,4-Diamino-5-isopropyl-6-(2′-napthylsulfanyl)-7H-pyrrolo[2,3-d]pyrimidine] | < 5.62 | 0 | 
2 | CCCc1c(Sc2ccc(OC)cc2)[nH]c2nc(N)nc(N)c12 [Compound 14, 2,4-Diamino-5-propyl-6-(4′-methoxyphenylsulfanyl)-7H-pyr-rolo[2,3-d]pyrimidine] | < 4.89 | 0 | 
3 | CCCc1c(Sc2ccccc2)[nH]c2nc(N)nc(N)c12 [Compound 13, 2,4-Diamino-5-propyl-6-(phenylsulfanyl)-7H-pyrrolo[2,3-d]py-rimidine] | < 4.85 | 0 | 
4 | CCCc1c(Sc2cccc3ccccc23)[nH]c2nc(N)nc(N)c12 [Compound 17, 2,4-Diamino-5-propyl-6-(1′-napthylsulfanyl)-7H-pyrrolo[2,3-d]pyrimidine] | < 4.92 | 0 | 
5 | CCCc1c(Sc2c(C)cccc2C)[nH]c2nc(N)nc(N)c12 [Compound 12, 2,4-Diamino-5-propyl-6-(2′,6′-dimethylphenylsulfanyl)-7H-pyrrolo[2,3-d] pyrimidine] | < 4.62 | 0 | 
6 | COc1ccc(OC)c(Sc2[nH]c3nc(N)nc(N)c3c2C(C)C)c1 [Compound 23, 2,4-Diamino-5-isopropyl-6-(2′,5′-dimethoxyphenylsulfanyl)-7H-pyrrolo[2,3-d]pyrimidine] | < 5.64 | 0 | potency rank against T. gondii DHFR, in words (T. gondii DHFR [1]): among the six least potent compounds
7 | CC(C)c1c(Sc2cccc3ccccc23)[nH]c2nc(N)nc(N)c12 [Compound 25, 2,4-Diamino-5-isopropyl-6-(1′-napthylsulfanyl)-7H-pyrrolo[2,3-d]pyrimidine] | < 4.92 | 0 | 
8 | COc1ccc(Sc2[nH]c3nc(N)nc(N)c3c2C(C)C)cc1 [Compound 22, 2,4-Diamino-5-isopropyl-6-(4′-methoxyphenylsulfanyl)-7H-pyrrolo[2,3-d]pyrimidine] | < 5.60 | 0 | 
9 | CC(C)c1c(Sc2ccc(Cl)c(Cl)c2)[nH]c2nc(N)nc(N)c12 [Compound 27, 2,4-Diamino-5-isopropyl-6-(3′,4′-dichlorophenylsulfanyl)-7H-pyrrolo[2,3-d]pyrimidine] | < 5.64 | 0 | potency rank against T. gondii DHFR, in words (T. gondii DHFR [1]): among the six least potent compounds
10 | CCCc1c(Sc2ccc3ccccc3c2)[nH]c2nc(N)nc(N)c12 [Compound 18, 2,4-Diamino-5-propyl-6-(2′-napthylsulfanyl)-7H-pyrrolo[2,3-d]pyrimidine] | < 4.92 | 0 | 
11 | CCCc1c(Sc2c(Cl)cccc2Cl)[nH]c2nc(N)nc(N)c12 [Compound 11, 2,4-Diamino-5-propyl-6-(2′,6′-dichlorophenylsulfanyl)-7H-pyrrolo[2,3-d]pyrimidine] | < 4.66 | 0 | 
12 | CN(Cc1cnc2nc(N)nc(N)c2n1)c1ccc(C(=O)N[C@@H](CCC(=O)O)C(=O)O)cc1 [MTX, methotrexate, reference compound] |  |  | pEC50 [2]: 7.90; potency rank against T. gondii DHFR, in words (T. gondii DHFR [1]): three most potent compounds
13 | CCCc1c(Sc2ccc(C(=O)N[C@@H](CCC(=O)O)C(=O)O)cc2)[nH]c2nc(N)nc(N)c12 [Compound 3, N-[4-[(2,4-Diamino-5-propyl-7H-pyrrolo[2,3-d]pyrimidin-6-yl)sulfanyl]benzoyl]-L-glutamic Acid] |  |  | GI50 (HCT 15): > 100000 nM; GI50 (SW-620): 1210 nM; inhibition of hTS, in words (human TS): poor inhibitor; inhibition of T. gondii DHFR, in words (T. gondii DHFR [3]): good inhibitor; inhibition of hDHFR, in words (human DHFR): good inhibitor; inhibition of E. coli DHFR, in words (E. coli DHFR): good inhibitor; inhibition of T. gondii TS, in words (T. gondii TS): moderate inhibition; potency rank against T. gondii DHFR, in words (T. gondii DHFR [1]): three most potent compounds; GI50 (60 tumor cell lines): < 1000 nM; GI50 (60 tumor cell lines; read-out: GI50 tumor cells in culture): ≤ 100 nM; inhibition of E. coli TS, in words (E. coli TS): poor inhibitor
14 | Cc1cccc(C)c1Sc1[nH]c2nc(N)nc(N)c2c1C(C)C [Compound 20, 2,4-Diamino-5-isopropyl-6-(2′,6′-dimethylphenylsulfanyl)-7H-pyrrolo[2,3-d] pyrimidine] | < 4.89 | 0 | 
15 | CC(C)c1c(Sc2c(Cl)cccc2Cl)[nH]c2nc(N)nc(N)c12 [Compound 19, 2,4-Diamino-5-isopropyl-6-(2′,6′-dichlorophenylsulfanyl)-7H-pyrrolo[2,3-d]pyrimidine] | < 5.66 | 0 | 
16 | CCCc1c(Sc2ccc(OC)c(OC)c2)[nH]c2nc(N)nc(N)c12 [Compound 16, 2,4-Diamino-5-propyl-6-(3′,4′-dimethoxyphenylsulfanyl)-7H-pyrrolo[2,3-d]pyrimidine] | < 4.96 | 0 | 
17 | CC(C)c1c(Sc2ccccc2)[nH]c2nc(N)nc(N)c12 [Compound 21, 2,4-Diamino-5-isopropyl-6-(phenylsulfanyl)-7H-pyrrolo[2,3-d]pyrimidine] | < 5.57 | 0 | 
18 | COc1ccc(Sc2[nH]c3nc(N)nc(N)c3c2C(C)C)cc1OC [Compound 24, 2,4-Diamino-5-isopropyl-6-(3′,4′-dimethoxyphenylsulfanyl)-7H-pyrrolo[2,3-d]pyrimidine] | < 5.64 | 0 | potency rank against T. gondii DHFR, in words (T. gondii DHFR [1]): among the six least potent compounds
19 | CCCc1c(Sc2cc(OC)ccc2OC)[nH]c2nc(N)nc(N)c12 [Compound 15, 2,4-Diamino-5-propyl-6-(2′,5′-dimethoxyphenylsulfanyl)-7H-pyrrolo[2,3-d]pyrimidine] | < 4.92 | 0 | 
